Here are results for 18 compounds from patent US10208067B2, “Compounds for treating spinal muscular atrophy” (Hoffmann-La Roche Inc., priority 2015, dated 2019).

Where two headings read alike, the source gives them in different places. Where only a bound is given, the exact number is not on record here.

The test system of assay [1] is full length SMN2 minigene mRNA (HEK293H cells stably transfected with SMN2-A minigene). In words: RT-qPCR assay for SMN2 minigene pre-mRNA splicing in cultured cells. Type of assay: cell-based. The note with it: Homo sapiens, HEK293-H, 24 hours. (Quantitative PCR measures a nucleic acid by following its amplification.)
In assay [2] the test system is SMN protein in SMA patient fibroblast cells (GM03813). In words: SMN protein assay (HTRF) in cultured cells. The class given is cell-based. The note with it: Homo sapiens, SMA Type 1 patient fibroblasts, 48 hours; for EC (1.5-fold): concentration producing 1.5 times SMN protein vs vehicle, read-out: EC1.5x SMN protein; for maximal fold induction: relative to vehicle control, read-out: max. fold increase of SMN protein. On the procedure: The SMN HTRF (homogeneous time resolved fluorescence) assay is used to quantify the level of SMN protein in SMA patient fibroblast cells treated with test compounds. Materials used and respective sources are listed below in Table 4.
Cells are thawed and cultured in DMEM-10% FBS for 72 hours. Cells are trypsinized, counted and re-suspended to a concentration of 25,000 cells/mL in DMEM-10% FBS. The cell suspensions are plated at 5,000 cells per well in a 96 well microtiter plate and incubated for […]. […] 1 μL of test compound solution is transferred to cell-containing wells and cells are incubated for 48 hours in a cell culture incubator (37° C., 5% CO2, 100% relative humidity). Triplicate samples are set up for each test compound concentration. After 48 hours, the supernatant is removed from the wells and 25 μL of the RIPA lysis buffer, containing protease inhibitors, is added to the wells and incubated with shaking at room temperature for 1 hour. 25 μL of the diluent is added and then 35 μL of the resulting lysate is transferred to a 384-well plate, where each well contains 5 μL of the antibody solution (1:100 dilution of anti-SMN d2 and anti-SMN cryptate in SMN reconstitution buffer). The plate is centrifuged for 1 minute to bring the solution to the bottom of the wells, then incubated overnight at room temperature. Fluorescence for each well of the plate at 665 nm and 620 nm is measured on an EnVision multilabel plate reader (Perkin-Elmer).
The normalized fluorescence signal is calculated for each sample, Blank and vehicle control well by dividing the signal at 665 nm by the signal at 620 nm. Normalizing the signal accounts for possible fluorescence quenching due to the matrix effect of the lysate. The ΔF value (a measurement of SMN protein abundance as a percent value) for each sample well is calculated by subtracting the normalized average fluorescence for the Blank control wells from the normalized fluorescence for each sample well, then dividing this difference by the normalized average fluorescence for the Blank control wells and multiplying the resulting value by 100. The ΔF value for each sample well represents the SMN protein abundance from test compound-treated samples. The ΔF value for each sample well is divided by the ΔF value for the vehicle control wells to calculate the fold increase in SMN protein abundance relative to the vehicle control. Table 5 provides EC1-5× concentrations for SMN protein expression that was obtained from the 7-point concentration data generated according to the above procedure for particular compounds of the present invention.
Table 6 provides the maximum fold increase of SMN protein that was obtained from the 7-point concentration data generated according to the above procedure for particular compounds of the present invention
For orientation: Time-resolved FRET reads energy transfer from a long-lived donor to a nearby acceptor.

Setting [3] is: Table 3 (title: production of full length SMN2 minigene mRNA), read-out: EC1.5x SMN protein.
The mark [4] stands for this setting: concentration increasing full length SMN2 minigene mRNA 1.5-fold vs vehicle, read-out: EC1.5x minigene.

Turning to `Cc1nc2ccc(-c3cc(=O)n4cc(N5CCCN(C)CC5)ccc4n3)nn2n1` [Example 20, 7-(4-methyl-1,4-diazepan-1-yl)-2-(2-methyl-[1,2,4]triazolo[1,5-b]pyridazin-6-yl)pyrido[1,2-a]pyrimidin-4-one], the EC (1.5-fold) in assay [1] (setting [3]) amounted to 0.0418 µM. For the same compound, in assay [2], the EC (1.5-fold) worked out at 0.12 µM and the maximal fold induction came out at 1.77.
The matching figures for `Cc1nc2ccc(-c3cc(=O)n4cc(N5CCN[C@H](C)C5)cc(C)c4n3)nn2n1` [Example 40, 9-methyl-7-[(3R)-3-methylpiperazin-1-yl]-2-(2-methyl-[1,2,4]triazolo[1,5-b]pyridazin-6-yl)pyrido[1,2-a]pyrimidin-4-one]: 0.0088 µM, 0.0148 µM and 2.08.
On to `Cc1nc2ccc(-c3cc(=O)n4cc(N5CC[C@@H](N(C)C)C5)ccc4n3)nn2n1` [Example 41, 7-[(3R)-3-(dimethylamino)pyrrolidin-1-yl]-2-(2-methyl-[1,2,4]triazolo[1,5-b]pyridazin-6-yl)pyrido[1,2-a]pyrimidin-4-one], for which, in assay [1] (setting [3]), the EC (1.5-fold) is 0.163 µM. In assay [2], the EC (1.5-fold) was found to be 0.207 µM and the maximal fold induction was found to be 1.75.
The corresponding values for `Cc1nc2ccc(-c3cc(=O)n4cc(N5CCN6CCC[C@@H]6C5)ccc4n3)nn2n1` [Example 36, 7-[(8aR)-3,4,6,7,8,8a-hexahydro-1H-pyrrolo[1,2-a]pyrazin-2-yl]-2-(2-methyl-[1,2,4]triazolo[1,5-b]pyridazin-6-yl)pyrido[1,2-a]pyrimidin-4-one] are 0.0158 µM, 0.0997 µM and 1.92.
The corresponding values for `Cc1nc2ccc(-c3cc(=O)n4cc(N5CC[C@@H](N(C)C)C5)cc(C)c4n3)nn2n1` [Example 30, 7-[(3R)-3-(dimethylamino)pyrrolidin-1-yl]-9-methyl-2-(2-methyl-[1,2,4]triazolo[1,5-b]pyridazin-6-yl)pyrido[1,2-a]pyrimidin-4-one] are 0.0065 µM, 0.0279 µM and 1.98.
The corresponding values for `Cc1nc2ccc(-c3cc(=O)n4cc(N5CCN(C)CC5)ccc4n3)nn2n1` [Example 39, 7-(4-methylpiperazin-1-yl)-2-(2-methyl-[1,2,4]triazolo[1,5-b]pyridazin-6-yl)pyrido[1,2-a]pyrimidin-4-one] are 0.0272 µM, 0.09 µM and 1.74.
Take `Cc1nc2ccc(-c3cc(=O)n4cc(N5CCNC(C)(C)C5)cc(C)c4n3)nn2n1` [Example 28, 7-(3,3-dimethylpiperazin-1-yl)-9-methyl-2-(2-methyl-[1,2,4]triazolo[1,5-b]pyridazin-6-yl)pyrido[1,2-a]pyrimidin-4-one]: in assay [1] (setting [3]), the EC (1.5-fold) turned out to be 0.0096 µM. Moreover, in assay [2], the EC (1.5-fold) is 0.0353 µM and the maximal fold induction came out at 1.79.
For the compound `Cc1nc2ccc(-c3cc(=O)n4cc(N5CC6(CCNCC6)C5)cc(C)c4n3)nn2n1` [Example 35, 7-(2,7-diazaspiro[3.5]nonan-2-yl)-9-methyl-2-(2-methyl-[1,2,4]triazolo[1,5-b]pyridazin-6-yl)pyrido[1,2-a]pyrimidin-4-one], the EC (1.5-fold) in assay [1] (setting [3]) worked out at 0.0022 µM. In assay [2], the EC (1.5-fold) was determined as 0.0082 µM and the maximal fold induction is 1.9.
Consider `Cc1nc2ccc(-c3cc(=O)n4cc(N5C[C@@H](C)N[C@@H](C)C5)cc(C)c4n3)nn2n1` [Example 26, 7-[(3R,5S)-3,5-dimethylpiperazin-1-yl]-9-methyl-2-(2-methyl-[1,2,4]triazolo[1,5-b]pyridazin-6-yl)pyrido[1,2-a]pyrimidin-4-one], for which the values for the EC (1.5-fold) in assay [1] (setting [3]) and in assay [2] were 0.0483 µM and 0.225 µM, respectively. Besides, the maximal fold induction in assay [2] is 1.88.
`Cc1nc2ncc(-c3cc(=O)n4cc(N5CCNC(C)(C)C5)ccc4n3)cn2n1` [Example 6, 7-(3,3-dimethylpiperazin-1-yl)-2-(2-methyl-[1,2,4]triazolo[1,5-a]pyrimidin-6-yl)pyrido[1,2-a]pyrimidin-4-one]: the EC (1.5-fold) came to 0.201 µM in assay [1] (setting [4]) and 2.15 µM in assay [2]. Also, the maximal fold induction in assay [2] amounted to 1.7.
Consider `Cc1nc2ncc(-c3cc(=O)n4cc(N5CC[C@@H](N(C)C)C5)ccc4n3)cn2n1` [Example 3, 7-[(3R)-3-(dimethylamino)pyrrolidin-1-yl]-2-(2-methyl-[1,2,4]triazolo[1,5-a]pyrimidin-6-yl)pyrido[1,2-a]pyrimidin-4-one], for which the EC (1.5-fold) in assay [1] (setting [4]) was found to be 0.0452 µM. In addition, in assay [2], the EC (1.5-fold) turned out to be 0.52 µM and the maximal fold induction worked out at 1.79.
Regarding `Cc1nc2ccc(-c3cc(=O)n4cc(N5C[C@@H](C)N[C@@H](C)C5)ccc4n3)nn2n1` [Example 22, 7-[(3R,5S)-3,5-dimethylpiperazin-1-yl]-2-(2-methyl-[1,2,4]triazolo[1,5-b]pyridazin-6-yl)pyrido[1,2-a]pyrimidin-4-one], the EC (1.5-fold) in assay [1] (setting [3]) amounted to 0.0434 µM. Besides, in assay [2], the EC (1.5-fold) worked out at 0.228 µM and the maximal fold induction amounted to 1.76.
For `Cc1nc2ncc(-c3cc(=O)n4cc(N5CCN(C6COC6)CC5)ccc4n3)cn2n1` [Example 14, 7-[4-(oxetan-3-yl)piperazin-1-yl]2-(2-methyl-[1,2,4]triazolo[1,5-a]pyrimidin-6-yl)pyrido[1,2-a]pyrimidin-4-one], the results for the EC (1.5-fold) in assay [1] (setting [4]) and in assay [2] were 26.2 µM and over 31.6 µM, respectively. Besides, in assay [2], the maximal fold induction stood at 1.35.
As for `Cc1nc2ncc(-c3cc(=O)n4cc(N5CCNCC5)ccc4n3)cn2n1` [Example 1, 2-(2-methyl-[1,2,4]triazolo[1,5-a]pyrimidin-6-yl)-7-piperazin-1-yl-pyrido[1,2-a]pyrimidin-4-one], the values for the EC (1.5-fold) in assay [1] (setting [4]) and in assay [2] were 0.0584 µM and 0.221 µM, respectively. Further, the maximal fold induction in assay [2] was found to be 1.9.
As for `Cc1nc2ncc(-c3cc(=O)n4cc(N5CCN(C)CC5)ccc4n3)cn2n1` [Example 23, 7-(4-methylpiperazin-1-yl)-2-(2-methyl-[1,2,4]triazolo[1,5-a]pyrimidin-6-yl)pyrido[1,2-a]pyrimidin-4-one], the EC (1.5-fold) in assay [1] (setting [3]) is 0.0952 µM. For the same compound, in assay [2], the EC (1.5-fold) came out at 0.477 µM and the maximal fold induction amounted to 1.68.
Regarding `Cc1nc2ccc(-c3cc(=O)n4cc(N5CCCN(C)CC5)cc(C)c4n3)nn2n1` [Example 25, 9-methyl-7-(4-methyl-1,4-diazepan-1-yl)-2-(2-methyl-[1,2,4]triazolo[1,5-b]pyridazin-6-yl)pyrido[1,2-a]pyrimidin-4-one], in assay [1] (setting [3]), the EC (1.5-fold) was 0.0103 µM. Further, in assay [2], the EC (1.5-fold) was determined as 0.226 µM and the maximal fold induction is 1.89.
The matching figures for `Cc1nc2ccc(-c3cc(=O)n4cc(N5CCNC6(CC6)C5)ccc4n3)nn2n1` [Example 44, 7-(4,7-diazaspiro[2.5]octan-7-yl)-2-(2-methyl-[1,2,4]triazolo[1,5-b]pyridazin-6-yl)pyrido[1,2-a]pyrimidin-4-one]: 0.0578 µM, 0.265 µM and 2.02.
The matching figures for `Cc1nc2ccc(-c3cc(=O)n4cc(N5CCNCC5)ccc4n3)nn2n1` [Example 19, 7-piperazin-1-yl-2-(2-methyl-[1,2,4]triazolo[1,5-b]pyridazin-6-yl)pyrido[1,2-a]pyrimidin-4-one]: 0.009 µM, 0.0392 µM and 1.81.
